From ChEMBL document CHEMBL1147899, “Raman, FT-IR, NMR spectroscopic data and antimicrobial activity of bis[micro2-(benzimidazol-2-yl)-2-ethanethiolato-N,S,S-chloro-palladium(II)] dimer, [(micro2-CH2CH2NHNCC6H4)PdCl]2.C2H5OH complex” (2007)

Legend:
[1] = tested on: Micrococcus luteus; experiment: Antibacterial activity against Micrococcus luteus La 2971 at 5 ug by disk diffusion method; assay type: functional; conditions: read-out: IZ
[2] = tested on: Pseudomonas aeruginosa; experiment: Antibacterial activity against Pseudomonas aeruginosa ATCC 27853 at 5 ug after 24 hrs by disk diffusion method; assay type: functional; conditions: ATCC 27853, 24 h, read-out: IZ
[3] = tested on: Proteus vulgaris; experiment: Antibacterial activity against Proteus vulgaris ATCC 8427 at 5 ug after 24 hrs by disk diffusion method; assay type: functional; conditions: ATCC 8427, 24 h, read-out: IZ
[4] = tested on: Escherichia coli; experiment: Antibacterial activity against Escherichia coli ATCC 11230 at 5 ug after 24 hrs by disk diffusion method; assay type: functional; conditions: ATCC 11230, 24 h, read-out: IZ
[5] = tested on: Listeria monocytogenes; experiment: Antibacterial activity against Listeria monocytogenes ATCC 15313 at 5 ug after 24 hrs by disk diffusion method; assay type: functional; conditions: ATCC 15313, 24 h, read-out: IZ
[6] = tested on: Bacillus cereus; experiment: Antibacterial activity against Bacillus cereus ATCC 7064 at 5 ug after 24 hrs by disk diffusion method; assay type: functional; conditions: ATCC 7064, 24 h, read-out: IZ
[7] = tested on: Klebsiella pneumoniae; experiment: Antibacterial activity against Klebsiella pneumoniae UC57 at 5 ug after 24 hrs by disk diffusion method; assay type: functional; conditions: read-out: IZ
[8] = tested on: Staphylococcus aureus; experiment: Antibacterial activity against Staphylococcus aureus ATCC 6538 at 5 ug after 24 hrs by disk diffusion method; assay type: functional; conditions: ATCC 6538, 24 h, read-out: IZ
[9] = tested on: Mycolicibacterium smegmatis; experiment: Antibacterial activity against Mycobacterium smegmatis CCM 2067 at 5 ug after 24 hrs by disk diffusion method; assay type: functional; conditions: CCM 2067, 24 h, read-out: IZ
[10] = tested on: Listeria monocytogenes; experiment: Antibacterial activity against Listeria monocytogenes ATCC 15313 at 10 ug after 24 hrs by disk diffusion method; assay type: functional; conditions: ATCC 15313, 24 h, read-out: IZ
[11] = tested on: Bacillus cereus; experiment: Antibacterial activity against Bacillus cereus ATCC 7064 at 10 ug after 24 hrs by disk diffusion method; assay type: functional; conditions: ATCC 7064, 24 h, read-out: IZ
[12] = tested on: Mycolicibacterium smegmatis; experiment: Antibacterial activity against Mycobacterium smegmatis CCM 2067 at 10 ug after 24 hrs by disk diffusion method; assay type: functional; conditions: CCM 2067, 24 h, read-out: IZ
[13] = tested on: Staphylococcus aureus; experiment: Antibacterial activity against Staphylococcus aureus ATCC 6538 at 10 ug after 24 hrs by disk diffusion method; assay type: functional; conditions: ATCC 6538, 24 h, read-out: IZ
[14] = tested on: Micrococcus luteus; experiment: Antibacterial activity against Micrococcus luteus La 2971 at 10 ug by disk diffusion method; assay type: functional; conditions: read-out: IZ
[15] = tested on: Escherichia coli; experiment: Antibacterial activity against Escherichia coli ATCC 11230 at 10 ug after 24 hrs by disk diffusion method; assay type: functional; conditions: ATCC 11230, 24 h, read-out: IZ
[16] = tested on: Proteus vulgaris; experiment: Antibacterial activity against Proteus vulgaris ATCC 8427 at 10 ug after 24 hrs by disk diffusion method; assay type: functional; conditions: ATCC 8427, 24 h, read-out: IZ
[17] = tested on: Pseudomonas aeruginosa; experiment: Antibacterial activity against Pseudomonas aeruginosa ATCC 27853 at 10 ug after 24 hrs by disk diffusion method; assay type: functional; conditions: ATCC 27853, 24 h, read-out: IZ
[18] = tested on: Klebsiella pneumoniae; experiment: Antibacterial activity against Klebsiella pneumoniae UC57 at 10 ug after 24 hrs by disk diffusion method; assay type: functional; conditions: read-out: IZ
[19] = tested on: Listeria monocytogenes; experiment: Antibacterial activity against Listeria monocytogenes ATCC 15313 at 30 ug after 24 hrs by disk diffusion method; assay type: functional; conditions: ATCC 15313, 24 h, read-out: IZ
[20] = tested on: Mycolicibacterium smegmatis; experiment: Antibacterial activity against Mycobacterium smegmatis CCM 2067 at 30 ug after 24 hrs by disk diffusion method; assay type: functional; conditions: CCM 2067, 24 h, read-out: IZ
[21] = tested on: Pseudomonas aeruginosa; experiment: Antibacterial activity against Pseudomonas aeruginosa ATCC 27853 at 30 ug after 24 hrs by disk diffusion method; assay type: functional; conditions: ATCC 27853, 24 h, read-out: IZ
[22] = tested on: Staphylococcus aureus; experiment: Antibacterial activity against Staphylococcus aureus ATCC 6538 at 30 ug after 24 hrs by disk diffusion method; assay type: functional; conditions: ATCC 6538, 24 h, read-out: IZ
[23] = tested on: Escherichia coli; experiment: Antibacterial activity against Escherichia coli ATCC 11230 at 30 ug after 24 hrs by disk diffusion method; assay type: functional; conditions: ATCC 11230, 24 h, read-out: IZ
[24] = tested on: Proteus vulgaris; experiment: Antibacterial activity against Proteus vulgaris ATCC 8427 at 30 ug after 24 hrs by disk diffusion method; assay type: functional; conditions: ATCC 8427, 24 h, read-out: IZ
[25] = tested on: Bacillus cereus; experiment: Antibacterial activity against Bacillus cereus ATCC 7064 at 30 ug after 24 hrs by disk diffusion method; assay type: functional; conditions: ATCC 7064, 24 h, read-out: IZ
[26] = tested on: Klebsiella pneumoniae; experiment: Antibacterial activity against Klebsiella pneumoniae UC57 at 30 ug after 24 hrs by disk diffusion method; assay type: functional; conditions: read-out: IZ
[27] = tested on: Micrococcus luteus; experiment: Antibacterial activity against Micrococcus luteus La 2971 at 30 ug by disk diffusion method; assay type: functional; conditions: read-out: IZ
[28] = tested on: Proteus vulgaris; experiment: Antibacterial activity against Proteus vulgaris ATCC 8427 by after 24 hrs dilution method; assay type: functional
[29] = tested on: Mycolicibacterium smegmatis; experiment: Antibacterial activity against Mycobacterium smegmatis CCM 2067 after 24 hrs by dilution method; assay type: functional
[30] = tested on: Listeria monocytogenes; experiment: Antibacterial activity against Listeria monocytogenes ATCC 15313 after 24 hrs by dilution method; assay type: functional
[31] = tested on: Klebsiella pneumoniae; experiment: Antibacterial activity against Klebsiella pneumoniae UC57 after 24 hrs by dilution method; assay type: functional
[32] = tested on: Bacillus cereus; experiment: Antibacterial activity against Bacillus cereus ATCC 7064 after 24 hrs by dilution method; assay type: functional
[33] = tested on: Escherichia coli; experiment: Antibacterial activity against Escherichia coli ATCC 11230 after 24 hrs by dilution method; assay type: functional
[34] = tested on: Micrococcus luteus; experiment: Antibacterial activity against Micrococcus luteus La 2971 after 24 hrs by dilution method; assay type: functional
[35] = tested on: Pseudomonas aeruginosa; experiment: Antibacterial activity against Pseudomonas aeruginosa ATCC 27853 after 24 hrs by dilution method; assay type: functional
[36] = tested on: Staphylococcus aureus; experiment: Antibacterial activity against Staphylococcus aureus ATCC 6538 after 24 hrs by dilution method; assay type: functional
[37] = tested on: Debaryomyces hansenii; experiment: Antifungal activity against Debaryomyces hansenii DSM 70238 at 100 ug after 72 hrs by disk diffusion method; assay type: functional, organism-based
[38] = tested on: Kluyveromyces marxianus; experiment: Antifungal activity against Kluyveromyces fragilis NRRL 2415 after 48 hrs by dilution method; assay type: functional
[39] = tested on: Rhodotorula mucilaginosa; experiment: Antifungal activity against Rhodotorula rubra DSM 70403 at 100 ug after 72 hrs by disk diffusion method; assay type: functional, organism-based
[40] = tested on: Kluyveromyces marxianus; experiment: Antifungal activity against Kluyveromyces fragilis NRRL 2415 at 100 ug after 72 hrs by disk diffusion method; assay type: functional, organism-based
[41] = tested on: Hanseniaspora guilliermondii; experiment: Antifungal activity against Hanseniaspora guilliermondii DSM 3432 after 48 hrs by dilution method; assay type: functional
[42] = tested on: Hanseniaspora guilliermondii; experiment: Antifungal activity against Hanseniaspora guilliermondii DSM 3432 at 100 ug after 72 hrs by disk diffusion method; assay type: functional, organism-based
[43] = tested on: Rhodotorula mucilaginosa; experiment: Antifungal activity against Rhodotorula rubra DSM 70403 after 48 hrs by dilution method; assay type: functional
[44] = tested on: Debaryomyces hansenii; experiment: Antifungal activity against Debaryomyces hansenii DSM 70238 after 48 hrs by dilution method; assay type: functional
[45] = tested on: Candida albicans; experiment: Antifungal activity against Candida albicans ATCC 10231 after 48 hrs by dilution method; assay type: functional

`CC1COc2c(N3CCN(C)CC3)c(F)cc3c(=O)c(C(=O)O)cn1c23` (centres undefined) [OFLOXACIN] showed a zone of inhibition at 5 µg/disc [1] of 28 mm, a zone of inhibition at 5 µg/disc [2] of 44 mm and a zone of inhibition at 5 µg/disc [3] of 28 mm. It also gave a zone of inhibition at 5 µg/disc [4] of 30 mm, a zone of inhibition at 5 µg/disc [5] of 30 mm and a zone of inhibition at 5 µg/disc [6] of 30 mm. It also gave a zone of inhibition at 5 µg/disc [7] of 28 mm, a zone of inhibition at 5 µg/disc [8] of 24 mm and a zone of inhibition at 5 µg/disc [9] of 32 mm.

Work on `CC1(C)S[C@@H]2[C@H](NC(=O)Cc3ccccc3)C(=O)N2[C@H]1C(=O)O` [PENICILLIN G] yielded a zone of inhibition at 10 µg/disc [10] of 10 mm, a zone of inhibition at 10 µg/disc [11] of 14 mm and a zone of inhibition at 10 µg/disc [12] of 15 mm. For the same compound, the zone of inhibition at 10 µg/disc [13] was 13 mm, the zone of inhibition at 10 µg/disc [14] was 36 mm and the zone of inhibition at 10 µg/disc [15] was 18 mm. The zone of inhibition at 10 µg/disc [16] was 10 mm, the zone of inhibition at 10 µg/disc [17] was 8 mm and the zone of inhibition at 10 µg/disc [18] was 18 mm.

Compound `CN(C)[C@@H]1C(O)=C(C(N)=O)C(=O)[C@@]2(O)C(O)=C3C(=O)c4c(O)cccc4[C@@](C)(O)[C@H]3C[C@@H]12` [TETRACYCLINE] has a zone of inhibition at 30 µg/disc [19] of 28 mm, a zone of inhibition at 30 µg/disc [20] of 24 mm and a zone of inhibition at 30 µg/disc [21] of 34 mm. For the same compound, the zone of inhibition at 30 µg/disc [22] was 26 mm, the zone of inhibition at 30 µg/disc [23] was 28 mm and the zone of inhibition at 30 µg/disc [24] was 26 mm. The zone of inhibition at 30 µg/disc [25] was 25 mm, the zone of inhibition at 30 µg/disc [26] was 30 mm and the zone of inhibition at 30 µg/disc [27] was 2 mm.

With `CN[C@H](CC(C)C)C(=O)N[C@H]1C(=O)N[C@@H](CC(N)=O)C(=O)N[C@H]2C(=O)N[C@H]3C(=O)N[C@H](C(=O)N[C@H](C(=O)O)c4cc(O)cc(O)c4-c4cc3ccc4O)[C@H](O)c3ccc(c(Cl)c3)Oc3cc2cc(c3O[C@@H]2O[C@H](CO)[C@@H](O)[C@H](O)[C@H]2O[C@H]2C[C@](C)(N)[C@H](O)[C@H](C)O2)Oc2ccc(cc2Cl)[C@H]1O` [VANCOMYCIN] the zone of inhibition at 30 µg/disc [19] was 26 mm, the zone of inhibition at 30 µg/disc [20] was 20 mm and the zone of inhibition at 30 µg/disc [21] was 10 mm. The zone of inhibition at 30 µg/disc [22] was 13 mm, the zone of inhibition at 30 µg/disc [23] was 22 mm and the zone of inhibition at 30 µg/disc [24] was 20 mm. It also gave a zone of inhibition at 30 µg/disc [25] of 18 mm, a zone of inhibition at 30 µg/disc [26] of 22 mm and a zone of inhibition at 30 µg/disc [27] of 34 mm.

Work on GENTAMICIN yielded an MIC [28] of 6.25 µg/mL, an MIC [29] of 12.5 µg/mL and an MIC [30] of 12.5 µg/mL. For the same compound, the MIC [31] was 6.25 µg/mL, the MIC [32] was 6.25 µg/mL and the MIC [33] was 6.25 µg/mL. The MIC [34] was 25 µg/mL, the MIC [35] was 6.25 µg/mL and the MIC [36] was 25 µg/mL.

NYSTATIN was tested, and the inhibition zone (IZ) [37] was 16 mm, the MIC [38] was 6.25 µg/mL and the inhibition zone (IZ) [39] was 18 mm. The inhibition zone (IZ) [40] was 18 mm, the MIC [41] was 3.12 µg/mL and the inhibition zone (IZ) [42] was 21 mm. It also gave an MIC [43] of 6.25 µg/mL, an MIC [44] of 12.5 µg/mL and an MIC [45] of 3.12 µg/mL.
